We go through 4 compounds from article doi:10.1101/2021.01.25.428124v1 (biorxiv, 2021).

This assay deals with Methyl-coenzyme M reductase (MCR-I), Ni(I)-MCRred1 (Methanothermobacter marburgensis, UniProt P11558+P11560+P11562). Kind of assay: biochemical. Type of assay: binding.
Sequence of Methyl-coenzyme M reductase (MCR-I), Ni(I)-MCRred1 (P11558 2-550 limits assumed): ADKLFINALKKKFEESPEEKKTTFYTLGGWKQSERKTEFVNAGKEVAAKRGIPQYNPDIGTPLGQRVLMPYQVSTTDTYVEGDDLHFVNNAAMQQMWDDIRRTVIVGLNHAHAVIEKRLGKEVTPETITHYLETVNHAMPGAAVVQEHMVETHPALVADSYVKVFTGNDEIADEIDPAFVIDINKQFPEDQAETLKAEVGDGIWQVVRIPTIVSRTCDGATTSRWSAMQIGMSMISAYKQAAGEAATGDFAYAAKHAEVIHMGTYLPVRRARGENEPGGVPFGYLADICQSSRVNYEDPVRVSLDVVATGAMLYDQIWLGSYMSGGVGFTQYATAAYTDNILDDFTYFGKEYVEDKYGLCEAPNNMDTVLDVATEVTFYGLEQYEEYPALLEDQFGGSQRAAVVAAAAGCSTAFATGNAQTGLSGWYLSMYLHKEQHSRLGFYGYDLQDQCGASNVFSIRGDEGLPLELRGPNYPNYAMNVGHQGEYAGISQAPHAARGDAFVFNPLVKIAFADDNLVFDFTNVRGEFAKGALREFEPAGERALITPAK
Sequence of Methyl-coenzyme M reductase (MCR-I), Ni(I)-MCRred1 (P11560 2-443 limits assumed): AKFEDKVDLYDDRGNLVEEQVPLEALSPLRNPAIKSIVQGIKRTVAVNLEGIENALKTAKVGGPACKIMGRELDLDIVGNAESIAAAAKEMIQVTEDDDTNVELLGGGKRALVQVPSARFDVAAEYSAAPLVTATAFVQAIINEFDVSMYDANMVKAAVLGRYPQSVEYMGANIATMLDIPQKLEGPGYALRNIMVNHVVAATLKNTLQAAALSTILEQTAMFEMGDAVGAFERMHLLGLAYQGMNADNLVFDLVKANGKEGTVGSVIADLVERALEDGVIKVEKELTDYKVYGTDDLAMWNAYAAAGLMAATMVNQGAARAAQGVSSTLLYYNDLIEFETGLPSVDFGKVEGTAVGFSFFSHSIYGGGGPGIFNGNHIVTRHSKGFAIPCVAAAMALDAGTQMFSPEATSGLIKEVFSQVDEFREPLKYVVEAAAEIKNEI
Sequence of Methyl-coenzyme M reductase (MCR-I), Ni(I)-MCRred1 (P11562 2-249 limits assumed): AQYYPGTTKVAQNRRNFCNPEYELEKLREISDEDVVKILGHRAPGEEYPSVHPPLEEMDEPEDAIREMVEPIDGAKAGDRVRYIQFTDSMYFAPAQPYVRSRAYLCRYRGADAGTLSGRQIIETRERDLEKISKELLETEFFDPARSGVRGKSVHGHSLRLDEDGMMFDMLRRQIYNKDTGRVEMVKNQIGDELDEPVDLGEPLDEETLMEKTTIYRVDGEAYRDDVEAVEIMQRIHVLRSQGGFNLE
As usually defined, the Kd is the concentration at which binding is half-saturated. `CSCCS(=O)(=O)O` [methyl-SCoM, S-methyl-2-mercaptoethane sulfonate] registered an equilibrium dissociation constant (Kd) of 27.5 ± 7.3 µM.
Next, `C[C@@H](OP(=O)(O)O)[C@H](NC(=O)CCCCCCSSCCS(=O)(=O)O)C(=O)O` [CoMSSCoB]: 57.4 ± 5.4 µM; `C[C@@H](OP(=O)(O)O)[C@H](NC(=O)CCCCCSSCCS(=O)(=O)O)C(=O)O` [CoMSSCoB6]: 105 ± 10.9 µM; `CCCCS(=O)(=O)O` [But-SO3]: 3300 ± 600 µM.
